Data taken from article PMC11240139, “Exploring the antitumor potential of novel quinoline derivatives via tubulin polymerization inhibition in breast cancer; design, synthesis and molecular docking” (RSC Advances, 2024).

Experiments:
MDA-MB-231 cells [1] = assay: Cell cycle analysis by flow cytometry (PI); type: cell-based; conditions: MDA-MB-231, IC50 dose, 24 h; control 10.42%
Method: Propidium Iodide Flow Cytometry Kit for Cell Cycle Analysis (Abcam) was used according to manufacturer's instructions. Briefly, MDA-MB 231 cells (2 × 10^5 cells) were seeded in 6-well plates and cultured for 24 h. […] Cells were collected, washed with PBS and centrifuged. Subsequently, the cells were re-suspended and fixed in 66% ethanol on ice for at least 2 h. The cells were stained with a working solution containing propidium iodide (PI) in the dark at 37 °C for 30 min. DNA content of the cells were measured by flow cytometry using FACSCalibur (BD Biosciences, Mountain View, CA). The data were analyzed using the CellQuest software (BD Biosciences).[21]

MDA-MB-231 cells [2] = assay: Cell apoptosis analysis (annexin V-FITC/PI); type: cell-based; conditions: MDA-MB-231, IC50 dose, 24 h
Method: Annexin-V-FITC Apoptosis Detection Kit (Biovision, USA) was used to determine apoptotic cells according to manufacturer's instructions. Briefly, MDA-MB 231 cells (2 × 10^5 cells) were seeded in 6-well plates and cultured for 24 h. […] Cells were collected, washed with PBS and centrifuged. The cells were re-suspended in 500 μL of 1× binding buffer. 5 μL of annexin V-FITC and 5 μL of propidium iodide (PI […]) were added and the cells were incubated in the dark at room temperature for 5 min. The fluorescence of the stained cells was analyzed by flow cytometry using FACSCalibur (BD Biosciences, Mountain View, CA). The data were analyzed using the CellQuest software (BD Biosciences).[53,54]

tubulin = molecular target: T1, tubulin (Sus scrofa, UniProt P02550+P02554); parameters: method as in PMID 33203182, PMID 36893547, PMID 33730937, PMID 30525584, PMID 30530194; conditions: Fig. 4; read-out: tubulin inhibition IC50; cited from earlier work
T1 construct: purchased Cytoskeleton, USA
T1 sequence (P02554 whole entry): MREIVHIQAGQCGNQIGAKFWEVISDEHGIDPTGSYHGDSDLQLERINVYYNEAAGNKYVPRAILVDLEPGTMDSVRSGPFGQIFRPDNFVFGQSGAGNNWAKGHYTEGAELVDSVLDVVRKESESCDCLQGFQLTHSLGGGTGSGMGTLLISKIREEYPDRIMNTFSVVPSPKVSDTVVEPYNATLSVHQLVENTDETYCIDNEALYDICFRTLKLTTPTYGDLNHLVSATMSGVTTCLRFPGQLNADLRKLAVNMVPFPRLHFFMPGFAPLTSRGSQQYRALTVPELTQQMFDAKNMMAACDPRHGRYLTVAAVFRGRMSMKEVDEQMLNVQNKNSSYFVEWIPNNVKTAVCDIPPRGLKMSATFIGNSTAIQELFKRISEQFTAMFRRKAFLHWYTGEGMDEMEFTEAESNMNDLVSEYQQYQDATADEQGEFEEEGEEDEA
T1 sequence (P02550 whole entry): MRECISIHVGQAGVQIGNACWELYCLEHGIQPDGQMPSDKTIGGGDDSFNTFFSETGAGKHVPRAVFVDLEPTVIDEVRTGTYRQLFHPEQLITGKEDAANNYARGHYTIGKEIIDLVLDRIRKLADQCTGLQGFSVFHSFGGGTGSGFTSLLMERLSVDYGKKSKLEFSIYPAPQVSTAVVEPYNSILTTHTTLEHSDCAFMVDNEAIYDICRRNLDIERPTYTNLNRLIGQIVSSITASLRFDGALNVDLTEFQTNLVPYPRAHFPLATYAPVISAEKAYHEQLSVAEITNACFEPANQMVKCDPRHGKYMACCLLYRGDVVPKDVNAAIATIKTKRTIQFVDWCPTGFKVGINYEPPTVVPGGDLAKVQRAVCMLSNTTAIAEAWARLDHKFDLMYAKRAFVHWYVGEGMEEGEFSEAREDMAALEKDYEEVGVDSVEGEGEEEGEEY

COc1cc2c(c(OC)c1OC)-c1ccc(OC)c(=O)cc1[C@@H](NC(C)=O)CC2 [Colchicine, colchicine]
cells population at G2 and M phases (MDA-MB-231 cells [1]): 26.51%
Early Apoptosis (%) (MDA-MB-231 cells [2]): 19.19 ± 0.87%
Late Apoptosis (%) (MDA-MB-231 cells [2]): 6.62 ± 0.75%
Necrosis (%) (MDA-MB-231 cells [2]): 11.41 ± 2.8%
Total Cell Death (%) (MDA-MB-231 cells [2]): 37.22 ± 2.8%
Necrosis (%) (MDA-MB-231 cells [2]; listed as colchicine): 11.41%

COc1cc(C(=O)N/N=C/c2cc3ccc(OC(C)C)cc3nc2OC)cc(OC)c1OC [IX]
IC50 (tubulin): 1320 nM

C=C(c1ccc2c(ccn2C)c1)c1cc(C)nc2ccccc12 [XIII]
IC50 (tubulin): 2090 nM

COc1ccc2nc(Cl)c(C3CC(c4ccc(N)cc4)=NN3c3ccccc3)cc2c1 (stereo not shown) [XIV]
IC50 (tubulin): 9.11 nM

COc1ccc(OC)c(/C=C/C(=O)c2ccc(NC(=O)COc3cccc4cccnc34)cc2)c1 [X]
IC50 (tubulin): 5320 nM
